# A melting point compilation (Tetko et al.; mined from patent text by program, amines drawn as free bases though some values may be those of a salt)
row,Structure (SMILES),melting point [°C]
1,O=C(Nc1c(Cl)cccc1Cl)C1c2ccccc2COc2ccc(Br)cc21 (configuration not stated),185 to 187
2,COc1ccc2occ(N)c(=O)c2c1,98 to 100
3,CN1C(=O)C(C(=O)Nc2ccc(F)cc2)S(=O)(=O)c2cc(Cl)ccc21 (configuration not stated),205
4,COc1ccc(/C(=C\C=C\C(=O)Oc2ccc([N+](=O)[O-])cc2)c2ccccc2OC)cc1,134 to 135
5,O=C(O)C1=Cc2cc(C#Cc3ccccc3)ccc2NC1C(F)(F)F (configuration not stated),218 to 219
6,COc1ccc(-c2ccc3c(Cl)c(OC)ccc3c2)cc1,158 to 164
7,O=C1NC(=O)c2c(Br)c(Sc3ccc(Cl)cc3)c(Sc3ccc(Cl)cc3)c(Br)c21,310 to 315
8,COc1ccc2cc(C(=O)C(C)OS(C)(=O)=O)ccc2c1 (configuration not stated),149 to 151
9,CCOCCOC(=O)C(=O)Nc1nc(-c2ccc(OC)cc2)cs1,130 to 133
10,CCCCCCCCOc1cc(-c2cccc(C(F)(F)F)c2)c(OCC(=O)O)c(-c2cccc(C(F)(F)F)c2)c1,75 to 77
11,COc1cc(CCCCCCCC2OC(=O)NC2=O)ccc1OCc1nc(-c2ccccc2)oc1C (configuration not stated),109 to 111
12,CCCc1ccc2c(c1)C1(O)C(=O)c3ccccc3C1(O)O2 (configuration not stated),126 to 127
13,NC(=O)c1[nH]c2ccccc2c1-c1ccc(NC(=O)Nc2ccc(C(F)(F)F)c(Cl)c2)cc1,168 to 170
14,COc1cccc([C@H]2O[C@H](CC(=O)NS(=O)(=O)CCCO)C(=O)N(CC(C)(C)CO)c3ccc(Cl)cc32)c1OC,133 to 135
15,CC(Cc1cccc(O)c1)NCCC(c1ccccc1)c1ccccc1 (configuration not stated),122 to 124
16,NC(CS(=O)(=O)c1ccccc1)=NNC(=O)c1cc2ccccc2o1,205 to 220
17,CSc1ccc(-c2coc3ccc(C(=O)NN)cc23)cc1Cl,207 to 208
18,O=C(O)C1CCC(OCc2ccccc2)CC1 (configuration not stated),55 to 64
19,CS(=O)(=O)c1ccc(C(=O)C2C(=O)CCCC2=O)c(Cl)c1C1=NOC(Cc2ccccc2)C1 (configuration not stated),72 to 76
20,O=C(CCCCl)c1cc2c3c(c1)CCN3C(=O)CC2,123 to 124
21,O=C(O)C1(CCCCCCCCCCCCC2(C(F)F)CC2)CC1,54 to 54.8
22,O=C(NC(=O)c1ccc(OCCn2ccnc2)cc1)c1ccccc1,152 to 154
23,CC(=O)O[C@H]1CCNC1=O,85.5 to 87
24,Cc1noc(C(=O)NC(C)C)c1C(=O)O,86 to 92
25,CCOC(=O)C=Cc1ccc(C=Cc2ccc(Br)cc2)cc1,167
26,N#Cc1ccc2oc(CO)cc2c1,113 to 114

row,Structure (SMILES),melting point [°C]
1,O=C1NC(=O)C(Cc2ccc(OCCON3C(=O)c4ccccc4C3=O)cc2)S1 (configuration not stated),146 to 147
2,CCOC(=O)C(=CNc1ncnc2ccc(NC(=O)C(CC)CC)cc12)C(=O)OCC,191 to 194
3,O=C1OC(CCc2ccccc2)(c2ccccc2)CC(O)=C1SCc1cccc2ccccc12 (configuration not stated),132 to 134
4,COC(=O)NCCOc1cc(-c2ccccc2)on1,95 to 96
5,CCOC(=O)c1[nH]c(C(=O)OCC)c(C)c1C,66 to 68
6,CCCCCCNc1ccc(N=O)cc1,46 to 48
7,Cc1ccc(-c2ccc(C(=O)Nc3ccc4cc(CN5C(C)(C)CCCC5(C)C)ccc4c3)cc2)cc1,235 to 237
8,CCCNC1=NS(=O)(=O)c2cc(C(=O)O)ccc2N1,> 310
9,Cc1ccc2oc(Br)c(-c3ccccc3)c2c1,52 to 57
10,c1ccc(CSc2nc3ccccc3[nH]2)cc1,185 to 186
11,COc1ccc([N+](=O)[O-])nc1C,96 to 98
12,NC(=O)c1sc2ncnc(-c3cc(O)c4c(c3)OCC4)c2c1N,285
13,Cc1nc2ccc3c(c2o1)OC(CN1CC=C(c2c[nH]c4ccc(C#N)cc24)CC1)CO3 (configuration not stated),119
14,CCN(C(=O)C1CCC1)c1cccc(-c2ccc3nnc(C)n3n2)c1,157 to 159
15,FC(F)(F)c1ccc2c(Nc3ccncc3)noc2c1,249 to 250
16,Fc1ccc2c(c1)NCc1ccccc1O2,94
17,COC(=O)C(CC#Cc1cc2c(O)c(C(=O)NCc3ccc(Cl)cc3)cnc2s1)C(=O)OC,197 to 198
18,O=C(Cn1c(-c2cc([N+](=O)[O-])cc([N+](=O)[O-])c2)ncc(NC(=O)OCc2ccccc2)c1=O)NC(Cc1ccccc1)C(=O)C(F)(F)F (configuration not stated),154 to 157
19,COc1cccc(C(O)c2ccncc2)c1OC (configuration not stated),126 to 128
20,Cc1c(C(=O)N2CCC[C@H](C)C2)[nH]c2ccccc12,198 to 200
21,COc1ccc(C(=O)Nc2ccc3ccc(Oc4ccccc4)nc3n2)cn1,115 to 120
22,CCc1nc2c(Cl)ncnc2n1Cc1ccc(OC)cc1,101 to 103
23,C=CCNC(=O)c1cc(Cl)c2[nH]ncc2n1,121 to 125
24,OCCN(CCO)c1cc(-c2ccccn2)nc(-c2ccccn2)c1,171 to 172
25,CS(=O)(=O)N(Cc1cccnc1)c1ccc(F)cc1F,132 to 135
26,Cc1c2ccccc2c(O[Si](C)(C)C(C)(C)C)c2occ(CCC=O)c12,152 to 154

row,Structure (SMILES),melting point [°C]
1,COc1ccc(-c2cc(C(=O)NCCCCCCCCc3ccccc3)cc(-c3cccc(C(F)(F)F)c3)c2OCC(=O)O)cc1,139 to 144
2,COc1cccc(CN2C(=O)CCc3cc(O)c(OC)cc32)c1,137 to 138
3,Cc1nc(N2CCN(CC3CC3)C2=O)sc1C(=O)NCc1ccncc1,> 200
4,CCCCCC[C@H](F)CO,33 to 35
5,O=[N+]([O-])c1ccc(Oc2ccc3c(c2)Nc2ccccc2S3)cc1,210 to 211
6,CN(C)Cc1nnc2n1-c1ccc(Cl)cc1C(c1ccccc1)=NC2,168 to 171
7,COc1ccc(S(=O)(=O)C2SC(=O)NC2=O)cc1 (configuration not stated),93 to 95
8,Cn1cncc1COc1nn2c(-c3ccccc3)nnc2cc1-c1ccccc1,195 to 196
9,CCc1cc(C(=O)c2ccccc2Cl)c(-n2c(C)nnc2CNC(=O)c2c[nH]c3ccccc23)s1,140 to 145
10,CC(C)c1cc(Cl)cc(C(C)C)c1NC(=O)NS(=O)(=O)c1cc(C2(C)OCCO2)ccc1F,168 to 170
11,CCCCOc1ccc2cc(C(=O)O)ccc2c1,175 to 180
12,C1CC1Nc1nc(NC2CC2)nc(NC2CC2)n1,75 to 77
13,CC=Cc1ccc(CCNS(=O)(=O)c2ccc(Cl)cc2)cc1,153 to 155
14,CCCN(Cc1ccc(-c2ccccc2C2=NC(C)(C)CO2)cc1)C(c1ccccc1)(c1ccccc1)c1ccccc1,151 to 153
15,CC(C)c1ccc(S(=O)(=O)n2c(Cc3ccc(C(=O)O)c(O)c3)cc3cc(C(F)(F)F)ccc32)cc1,150
16,CC(C)(C)C(NC(=O)Cc1ccc(Cl)cc1)NC(Cc1cccc2ncccc12)=NC#N (configuration not stated),186 to 188
17,CC(O)C(CCCc1ccccc1)n1ncc2c(=O)[nH]c(Cc3ccc(Cl)cc3)nc21 (configuration not stated),101
18,CC(=O)c1cccc(Oc2ncccc2OCCCc2ccncc2O)c1,101 to 102
19,O=C(Nc1cccc2[nH]ccc12)C1(OCC2CO2)C=C(Cl)C=CC1 (configuration not stated),175
20,CC(=NO)c1ccc(Nc2c3ccccc3nc3occc23)cc1,264 to 265
21,CCOC(=O)CCC1(NC(=O)c2ccc(Cl)c(Cl)c2)C(=O)Nc2ccccc21 (configuration not stated),227 to 228
22,OCCOc1ccc2c(-c3ccccc3F)noc2c1Cl,112
23,Nc1ccc2sc(Cl)nc2c1,146 to 149
24,CCCn1c(=O)c2c(N)n[nH]c2n(Cc2ccccc2)c1=O,214 to 215
25,OC1CCCN2CCCCC12 (configuration not stated),70
26,Cc1cn(-c2ccc(N)cc2C(F)(F)F)c(C)n1,163 to 164

row,Structure (SMILES),melting point [°C]
1,NS(=O)(=O)c1ccc(-c2cnn(C3=CC=CC(F)(F)C3F)c(=O)c2-c2ccc(F)cc2)cc1 (configuration not stated),190 to 193
2,COc1ccc(-c2ccc(C(C)=O)cc2)cc1F,149 to 150
3,O=C(NCc1cccs1)C1CC2C=CC1C2 (configuration not stated),123 to 124
4,CCOC(=O)c1cn(CCF)c2nc(S(=O)(=O)CC)c(F)cc2c1=O,176 to 178
5,CCOC(=O)C1=Cc2cc(Cl)cc(Br)c2OC1C(F)(F)F (configuration not stated),101 to 102
6,CSc1ccc(Nc2cc(-c3nnc(C)o3)ccn2)cc1,203 to 204
7,CCCCC(C(O)c1ccc(Cl)cc1)n1cncn1 (configuration not stated),93 to 94
8,Cc1ccc(CCOc2ccc(NC(=O)N(C)C)cc2)nc1,148 to 150
9,CC1=CC(O)C(O)C(C)(C)CC1O (configuration not stated),138 to 139
10,Cn1c(=O)c(-c2ccc(Cl)cc2Cl)cc2c3cc(-c4csc(CO)n4)ccc3n(C)c21,261 to 262
11,CCCOc1nn(Cc2ccc(OCc3nc(-c4ccccc4)oc3C)cc2)cc1CCC(=O)O,108 to 109
12,CC(C)(C)OC(=O)CN(C(=O)CN1C(=O)c2ccccc2C1=O)c1ccccc1,126
13,CS(=O)C1C(O)C(CO)OC1n1ccc(=O)[nH]c1=O (configuration not stated),219 to 221
14,O=C(Cc1ccccc1)OCCOC(=O)NC1(C(=O)O)CC1,142 to 146
15,COc1cc2c(cc1CCC#N)C(=O)CC(C)(C)O2,105 to 107
16,CC(=O)Nc1c(C(=O)c2ccccc2)[nH]c2ccc(Br)cc12,192 to 194
17,CCCCCCCCCCCCCCCCCCOc1ccc(C(=O)C(=O)N(CC(=O)OCC)CC(=O)OCC)cc1,63 to 64
18,CN(C)CCNC(=O)Oc1ccc(Cl)cc1Cn1nc(-c2ccc(C(F)(F)F)cc2)oc1=O,158 to 159
19,CCOC(=O)C(C#N)=CNc1ncccc1Cl,140 to 142
20,N#Cc1cnc2sccc2c1Cl,100 to 103
21,CC(=O)OCc1nnc(N)s1,191 to 192
22,CC(=O)OC1=C([C@H]2CC[C@H](c3ccc(Cl)cc3)CC2)C(=O)c2ccccc2C1=O,149 to 152
23,Cn1nc(C(F)(F)F)c(CSC2=NOC(C)(C)C2)c1OC(F)F,39 to 40
24,CSc1ccc(-c2nc3[nH]nc(N)c3c(=O)n2-c2ccc(C)c(C)c2)cc1,263 to 266
